According to ChEMBL document CHEMBL1157193, “Synthesis and anti-Trypanosoma cruzi activity of derivatives from nor-lapachones and lapachones” (Bioorg Med Chem, 2008):

test system: Trypanosoma cruzi; test: Trypanocidal activity against Trypanosoma cruzi Y blood stream trypomastigotes after 24 hrs; format: functional, organism-based

Row | Structure (SMILES) | IC50 [µM]
1 | CC1(C)OC2=C(C(=O)C(=O)c3ccccc32)C1Nc1cccc(Br)c1 (stereo not drawn) | 141
2 | CC1(C)OC2=C(C(=O)C(=O)c3ccccc32)C1Nc1cccc([N+](=O)[O-])c1 (stereo not drawn) | 86.3
3 | CC1(C)OC2=C(C(=O)C(=O)c3ccccc32)C1Nc1cccc(Cl)c1 (stereo not drawn) | 333
4 | CC1(C)CC2=C(O1)C1(CO1)c1ccccc1C2=O (stereo not drawn) | > 4000
5 | CC1(C)OC2=C(C(=O)C(=O)c3ccccc32)C1Nc1ccc([N+](=O)[O-])cc1 (stereo not drawn) | 857
6 | CC1(C)CC2=C(O1)C(=O)c1ccccc1C2=O | > 4800
7 | COc1ccc(NC2C3=C(OC2(C)C)c2ccccc2C(=O)C3=O)cc1 (stereo not drawn) | 88.2
8 | CC1(C)OC2=C(C(=O)c3ccccc3C2=O)C1N=[N+]=[N-] (stereo not drawn) | 179
9 | CC1(C)CCC2=C(O1)C(=O)c1ccccc1C2=O [ALPHA-LAPACHONE] | > 4800
10 | CC1(C)OC2=C(C(=O)C(=O)c3ccccc32)C1Nc1cccc(F)c1 (stereo not drawn) | > 4000
11 | Cc1ccc(C)c(NC2C3=C(OC2(C)C)c2ccccc2C(=O)C3=O)c1 (stereo not drawn) | 1760
12 | CC1(C)OC2=C(C(=O)C(=O)c3ccccc32)C1Nc1ccc(Cl)cc1 (stereo not drawn) | 384
13 | CC1(C)OC2=C(C(=O)c3ccccc3C2=O)C1Nc1ccccc1 (stereo not drawn) | > 4000
14 | CC1(C)OC2=C(C(=O)C(=O)c3ccccc32)C1O (stereo not drawn) | 212
15 | CC1(C)OC2=C(C(=O)C(=O)c3ccccc32)C1Nc1ccc(F)cc1 (stereo not drawn) | 2520
16 | CC1(C)CC(Nc2ccccc2)C2=C(O1)C(=O)c1ccccc1C2=O (stereo not drawn) | 342
17 | CC1(C)OC2=C(C(=O)C(=O)c3ccccc32)C1Nc1ccc(Br)cc1 (stereo not drawn) | 952
18 | CC(C)=CCC1=C(O)C(=O)c2ccccc2C1=O [LAPACHOL] | 411
